Patent US4450269A, “Mono-5-substituted-3-chloro-4H-1,2,6-thiadiazin-4-one antifungal agents” (FMC Corporation, priority 1980, dated 1984)
Where a name gives a salt, the structure may show the parent alone.

Tests used:
Cercospora beticola = assay: whole plant or invertebrate; settings: in Beta vulgaris, foliar, 24 h, read-out: Percent Disease Control, curative, sugar beet leaf spot
Alternaria solani = assay: Spore germination test; assay type: cell-based; settings: AS, 48 hours
Method in brief: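 Compound in acetone was mixed into water agar at final 40, 10, 2.5 and 1 ppm and poured into quadrant dishes. Quadrants received spore suspension, while Erysiphe polygoni and Uromyces phaseoli spores were brushed on from infected leaves. After 48 h at 24 °C, the percentage of germinated spores was converted to a germination rating.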

Fusarium solani = assay: Soil treatment, bean root rot; assay type: in vivo; settings: Fusarium solani, soil, 336 h; 150 ppm suspension, 3.8 mg active per pot; read-out: Percent Disease Control, seed/soil, bean root rot
Protocol: In a similar manner the soil around a bean seedling was drenched with a sufficient amount of 150 ppm suspension of test chemical to provide 3.8 mg active per pot. Twenty-four hours later the soil was inoculated with a suspension of minced mycelium of Fusarium solani. The inoculated plants were then placed in a greenhouse, evaluated after fourteen days, and percent control of root rot damage calculated. The results, reported in Table III, indicate only a few of the compounds tested are effective in treating Bean Root Rot but that these provide a high degree of control.

Compound | pest or weed control at 150 ppm (Cercospora beticola) [%] | Spore Germination Rating (Alternaria solani; 1.0 ppm) | Spore Germination Rating (Alternaria solani; 2.5 ppm) | Spore Germination Rating (Alternaria solani; 10 ppm) | Spore Germination Rating (Alternaria solani; 40 ppm) | pest or weed control at 150 ppm, 3.8 mg/pot (Fusarium solani) [%] | Spore Germination Rating (Alternaria solani; 2.5 ppm, hydrochloride) | Spore Germination Rating (Alternaria solani; 10 ppm, hydrochloride)
Cc1cc(Oc2nsnc(Cl)c2=O)cc(C)c1Br [Compound 60, 3-[(4-bromo-3,5-dimethyl)-phenoxy]-5-chloro-4H--1,2,6-thiadiazin-4-one] | 0 | 4 (80-100) | 4 (80-100) | 4 (80-100) | 3 (60-80) | 0 | – | –
O=C(Nc1ccccc1)Oc1ccc(Oc2nsnc(Cl)c2=O)cc1 [Compound 37, 3-chloro-5-[4-(phenylaminocarbonyloxy)phenoxy]-4H-1,2,6,-thiadiazin-4-one] | – | 4 (80-100) | 4 (80-100) | 4 (80-100) | 3 (60-80) | – | – | –
O=C(O)c1ccc(Oc2nsnc(Cl)c2=O)cc1 [Compound 50, 3-(4-carboxyphenoxy)-5-chloro-4H--1,2,6-thiadiazin-4-one] | 50 | 4 (80-100) | 4 (80-100) | 4 (80-100) | 4 (80-100) | 0 | – | –
O=c1c(Cl)nsnc1Oc1ccc(F)cc1 [Compound 11, 3-chloro-5-(4-fluorophenoxy)-4H--1,2,6-thiadiazin-4-one] | 0 | 4 (80-100) | 0 (0-10) | 0 (0-10) | 0 (0-10) | 0 | – | –
CC(=O)c1ccc(Oc2nsnc(Cl)c2=O)cc1 [Compound 47, 3-(4-acetylphenoxy)-5-chloro-4H--1,2,6-thiadiazin-4-one] | 90 | 2 (40-60) | 0 (0-10) | 0 (0-10) | 0 (0-10) | 95 | – | –
CC(=O)c1cccc(Oc2nsnc(Cl)c2=O)c1 [Compound 48, 3-(3-acetylphenoxy)-5-chloro-4H--1,2,6-thiadiazin-4-one] | – | 4 (80-100) | 3 (60-80) | 0 (0-10) | 0 (0-10) | 95 | – | –
O=c1c(Cl)nsnc1Oc1ccc([N+](=O)[O-])cc1 [Compound 9, 3-chloro-5-(4-nitrophenoxy)-4H--1,2,6-thiadiazin-4-one] | 75 | 0 (0-10) | 0 (0-10) | 0 (0-10) | 0 (0-10) | 0 | – | –
O=c1c(Cl)nsnc1Oc1cccc(Cl)c1 [Compound 13, 3-chloro-5-(3-chlorophenoxy)-4H--1,2,6-thiadiazin-4-one] | 98 | 2 (40-60) | 0 (0-10) | 0 (0-10) | 0 (0-10) | 75 | – | –
Cc1cc(Oc2nsnc(Cl)c2=O)cc(C)c1Cl [Compound 59, 3-chloro-5-[(4-chloro-3,5-dimethyl)phenoxy]-4H--1,2,6-thiadiazin-4-one] | 0 | 4 (80-100) | 4 (80-100) | 4 (80-100) | 4 (80-100) | 0 | – | –
Cc1cc(Oc2nsnc(Cl)c2=O)ccc1Cl [Compound 54, 3-chloro-5-(4-chloro-3-methylphenoxy)-4H--1,2,6-thiadiazin-4-one] | 0 | 4 (80-100) | 4 (80-100) | 4 (80-100) | 4 (80-100) | 0 | – | –
Cc1cc(Cl)ccc1Oc1nsnc(Cl)c1=O [Compound 55, 3-chloro-5-(4-chloro-2-methylphenoxy)-4H--1,2,6-thiadiazin-4-one] | 95 | 4 (80-100) | 2 (40-60) | 1 (10-40) | 0 (0-10) | 0 | – | –
N#Cc1ccc(Oc2nsnc(Cl)c2=O)cc1 [Compound 10, 3-chloro-5-(4-cyanophenoxy)-4H--1,2,6-thiadiazin-4-one] | 95 | 1 (10-40) | 1 (10-40) | 1 (10-40) | 1 (10-40) | 0 | – | –
O=c1c(Cl)nsnc1Oc1ccc(Cl)cc1Cl [Compound 17, 3-chloro-5-(2,4-dichlorophenoxy)-4H--1,2,6-thiadiazin-4-one] | 95 | 2 (40-60) | 1 (10-40) | 0 (0-10) | 0 (0-10) | 0 | – | –
Cc1cc(Cl)c(Oc2nsnc(Cl)c2=O)cc1C [Compound 58, 3-chloro-5-[(2-chloro-4,5-dimethyl)phenoxy]-4H--1,2,6-thiadiazin-4-one] | 0 | 4 (80-100) | 3 (60-80) | 0 (0-10) | 0 (0-10) | 0 | – | –
O=c1c(Cl)nsnc1Oc1cccc2ccccc12 [Compound 32, 3-chloro-5(1-naphthoxy)-4H-1,2,6-thiadiazin-4-one] | 90 | 3 (60-80) | 1 (10-40) | 0 (0-10) | 0 (0-10) | 0 | – | –
CC(C)(C)c1ccc(Oc2nsnc(Cl)c2=O)cc1 [Compound 4, 3-chloro-5-(4-tert-butylphnoxy)-4H--1,2,6-thiadiazin-4-one] | 0 | 4 (80-100) | 4 (80-100) | 4 (80-100) | 4 (80-100) | 0 | – | –
Cc1ccc(Cl)c(Oc2nsnc(Cl)c2=O)c1 [Compound 56, 3-chloro-5-[(2-chloro-5-methyl)phenoxy]-4H--1,2,6-thiadiazin-4-one] | – | 4 (80-100) | 3 (60-80) | 0 (0-10) | 0 (0-10) | – | – | –
O=c1c(Cl)nsnc1Oc1ccc(Cl)c(Cl)c1 [Compound 16, 3-chloro-5-(3,4-dichlorophenoxy)-4H--1,2,6-thiadiazin-4-one] | 95 | 1 (10-40) | 0 (0-10) | 0 (0-10) | 0 (0-10) | 0 | – | –
Nc1ccc(Oc2nsnc(Cl)c2=O)cc1 [Compound 26, 5-(4-aminophenoxy)-3-chloro-4H--1,2,6-thiadiazin-4-one] | 95 | 4 (80-100) | 3 (60-80) | 0 (0-10) | 0 (0-10) | 0 | – | –
Cc1ccc(Oc2nsnc(Cl)c2=O)cc1 [Compound 3, 3-chloro-5-(4-methylphenoxy)-4H--1,2,6-thiadiazin-4-one] | 0 | 4 (80-100) | 4 (80-100) | 0 (0-10) | 0 (0-10) | 80 | – | –
O=c1c(Cl)nsnc1Oc1c(Cl)cccc1Cl [Compound 18, 3-chloro-5-(2,6-dichlorophenoxy)-4H--1,2,6-thiadiazin-4-one] | 98 | 3 (60-80) | 2 (40-60) | 1 (10-40) | 0 (0-10) | – | – | –
CSc1ccc(Oc2nsnc(Cl)c2=O)cc1 [Compound 39, 3-chloro-5-[(4-methylthio)phenoxy]-4H-1,2,6,-thiadiazin-4-one] | – | 4 (80-100) | 3 (60-80) | 2 (40-60) | 0 (0-10) | – | – | –
COc1ccc(Cl)c(Oc2nsnc(Cl)c2=O)c1 [Compound 51, 3-chloro-5-[(2-chloro-5-methoxy)phenoxy]-4H--1,2,6-thiadiazin-4-one] | – | 4 (80-100) | 4 (80-100) | 1 (10-40) | 0 (0-10) | – | – | –
Nc1ccc(Oc2nsnc(Cl)c2=O)cc1 [Compound 27, 5-(4-aminophenoxy)-3-chloro-4H--1,2,6-thiadiazine-4-one hydrochloride] | – | – | – | – | – | – | 4 (80-100) | 3 (60-80)
O=c1c(Cl)nsnc1Oc1ccc([N+](=O)[O-])cc1Cl [Compound 53, 3-chloro-5-(2-chloro-4-nitrophenoxy)-4H--1,2,6-thiadiazin-4-one] | – | 2 (40-60) | 0 (0-10) | 0 (0-10) | 0 (0-10) | – | – | –
CS(=O)(=O)c1ccc(Oc2nsnc(Cl)c2=O)cc1 [Compound 41, 3-chloro-5-[(4-methylsulfonyl)phenoxy]-4H--1,2,6-thiadiazin-4-one] | – | 4 (80-100) | 2 (40-60) | 0 (0-10) | 0 (0-10) | – | – | –
O=C(OCc1ccccc1)Oc1ccc(Oc2nsnc(Cl)c2=O)cc1 [Compound 38, 3-chloro-5-[4-(phenylmethoxycarbonyloxy)phenoxyl]-4H-1,2,6-thiadiazin-4-one] | – | 4 (80-100) | 4 (80-100) | 4 (80-100) | 4 (80-100) | – | – | –
N#CCc1ccc(Oc2nsnc(Cl)c2=O)cc1 [Compound 46, 3-chloro-5-[(4-cyanomethyl)-phenoxy]4H--1,2,6-thiadiazin-4-one] | – | 4 (80-100) | 2 (40-60) | 2 (40-60) | 0 (0-10) | – | – | –
